Laboratory results as given in patent US5945404A, “21-Substituted steroid compound” (priority 1993, dated 1999).
“And” between values parts separate entries of the source, which are not always exact repeats. Equal entries are not always repeated. Where two headings read alike, the source gives them in different places.

Tested on: croton oil-induced granuloma
Test: Croton Oil-induced Granuloma (granuloma pouch)
Type: in vivo, male Sprague-Dawley rats
Details: for inhibition in vivo at 1 mg / inhibition in vivo at 0.01 mg / inhibition in vivo at 0.1 mg: Rattus norvegicus, 168 h
Description: Groups of 5 male Sprague-Dawley rats each weighing 160-180 g were used. Under ether anesthesia, the dorsum of animals was closely clipped, and air sac was formed by injecting air (20 ml) subcutaneously. Next day cotton seed oil containing 1% croton oil was injected into the air sac. Drugs to be tested were suspended in the cotton seed oil containing 1% croton oil, and administered. After 7 days, the blood was taken from the animal under ether anesthesia. Then, the granuloma pouch fluid (exudate) was collected, and the fluid volume was measured. The pouch wall formed around granuloma and thymus were also excised and weighed.

[1] = 1.0 mg/rat, 7 days, read-out: Effects on granuloma weight, per cent of inhibition over the control
[2] = 1.0 mg/rat, 7 days, read-out: Effects on pouch fluid (exudate) volume, per cent of inhibition over the control
[3] = 0.01 mg/rat, 7 days, read-out: Effects on granuloma weight, per cent of inhibition over the control
[4] = 0.01 mg/rat, 7 days, read-out: Effects on pouch fluid (exudate) volume, per cent of inhibition over the control
[5] = 0.1 mg/rat, 7 days, read-out: Effects on granuloma weight, per cent of inhibition over the control
[6] = 0.1 mg/rat, 7 days, read-out: Effects on pouch fluid (exudate) volume, per cent of inhibition over the control
[7] = read-out: Effects on granuloma weight, per cent of inhibition over the control

Row | Compound | Effects on granuloma weight, per cent of inhibition over the control (0.01 mg/rat, 7 days) [per cent] | Effects on granuloma weight, per cent of inhibition over the control (0.1 mg/rat, 7 days) [per cent] | Effects on pouch fluid (exudate) volume, per cent of inhibition over the control (rat, in vivo) | Effects on thymus weight, per cent of inhibition over the control thymus weight (1.0 mg/rat, 7 days) | inhibition in vivo at 1 mg [1] [%] | inhibition in vivo at 1 mg [2] [%] | inhibition in vivo at 0.01 mg [3] [%] | inhibition in vivo at 0.01 mg [4] [%] | inhibition in vivo at 0.1 mg [5] [%] | inhibition in vivo at 0.1 mg [6] [%] | inhibition in vivo at 0.01 mg [7] [%] | inhibition in vivo at 1 mg [7] [%]
1 | CCC(=O)O[C@]1(C(=O)COC(C)=O)[C@@H](C)C[C@H]2[C@@H]3CCC4=CC(=O)C=C[C@]4(C)[C@@]3(F)[C@@H](O)C[C@@]21C [Betamethasone acetate propionate, reference compound] | 21.2 ± 6.4 | 26.0 ± 6.9 | 27.6 ± 8.1 and 43.6 ± 4.7 |  |  |  |  |  |  |  |  | 
2 | CCCCC(=O)O[C@]1(C(=O)CO)[C@@H](C)C[C@H]2[C@@H]3CCC4=CC(=O)C=C[C@]4(C)[C@@]3(F)[C@@H](O)C[C@@]21C [Betamethasone valerate, reference compound] |  |  |  | 37.0 ± 3.0 per cent and 58.9 ± 3.3 per cent | 18.7 ± 11.7 | 23.9 ± 12.1 |  |  |  |  |  | 
3 | Cc1ccc(C(=O)OC[C@H]2O[C@@H](OCC(=O)[C@@]3(O)[C@@H](C)C[C@H]4[C@@H]5CCC6=CC(=O)C=C[C@]6(C)[C@@]5(F)[C@@H](O)C[C@@]43C)[C@H](OC(=O)c3ccc(C)cc3)[C@@H](OC(=O)c3ccc(C)cc3)[C@@H]2OC(=O)c2ccc(C)cc2)cc1 [Compound 91β, Glucosylbetamethasone (per Tol)] |  |  |  |  | 4.3 ± 8.2 | 18.9 ± 8.8 | 17.1 ± 6.7 | 25.3 ± 5.3 | 6.9 ± 5.1 | 18.4 ± 6.1 |  | 
4 | C[C@H]1C[C@H]2[C@@H]3CCC4=CC(=O)C=C[C@]4(C)[C@@]3(F)[C@@H](O)C[C@]2(C)[C@@]1(O)C(=O)CO[C@@H]1O[C@H](COC(=O)c2ccccc2)[C@@H](OC(=O)c2ccccc2)[C@H](OC(=O)c2ccccc2)[C@H]1OC(=O)c1ccccc1 [Compound 100β, glucosylbetamethasone (benzoyl derivative)] |  |  |  |  | 60.5 ± 5.8 | 69.4 ± 6.7 | 11 ± 6.5 | 20.8 ± 11.7 | 4.1 ± 11.3 | 17.5 ± 5.9 |  | 
5 | C[C@@H]1C[C@H]2[C@@H]3C[C@H](F)C4=CC(=O)C=C[C@]4(C)[C@@]3(F)[C@@H](O)C[C@]2(C)[C@H]1C(=O)CO[C@@H]1O[C@H](COC(=O)c2ccccc2)[C@@H](OC(=O)c2ccccc2)[C@H](OC(=O)c2ccccc2)[C@H]1OC(=O)c1ccccc1 [Compound 110β, glucosyldiflucortolone (benzoyl derivative)] |  |  |  |  | 70.3 ± 1.9 | 97.2 ± 0.5 | 16.8 ± 7.1 | 34.4 ± 8.9 | 58.7 ± 1.4 | 79.6 ± 8.5 |  | 
6 | C[C@@H]1C[C@H]2[C@@H]3C[C@H](F)C4=CC(=O)C=C[C@]4(C)[C@@]3(F)[C@@H](O)C[C@]2(C)[C@H]1C(=O)CO[C@@H]1O[C@H](COC(=O)c2ccc(Cl)cc2)[C@@H](OC(=O)c2ccc(Cl)cc2)[C@H](OC(=O)c2ccc(Cl)cc2)[C@H]1OC(=O)c1ccc(Cl)cc1 [Compound 112β, glucosyldiflucortolone (p-chlorobenzoyl derivative)] |  |  |  |  | 61.3 ± 2.2 | 93.1 ± 1.6 | 15.9 ± 6.9 | 36.1 ± 9.2 | 27.1 ± 2.4 | 43.7 ± 2.5 |  | 
7 | CC(=O)OC[C@H]1O[C@@H](OCC(=O)[C@H]2[C@H](C)C[C@H]3[C@@H]4C[C@H](F)C5=CC(=O)C=C[C@]5(C)[C@@]4(F)[C@@H](O)C[C@@]32C)[C@H](OC(C)=O)[C@@H](OC(C)=O)[C@@H]1OC(C)=O [Compound 113β, glucosyldiflucortolone (acetyl derivative)] |  |  |  |  | 90.5 ± 0.6 | 97.5 ± 0.7 | 47.4 ± 11 | 90.5 ± 6.6 | 60.8 ± 9.3 | 97.1 ± 0.5 |  | 
8 | CCCCC(=O)OCC(=O)[C@H]1[C@H](C)C[C@H]2[C@@H]3C[C@H](F)C4=CC(=O)C=C[C@]4(C)[C@@]3(F)[C@@H](O)C[C@@]21C [Diflucortolone valerate, reference compound] |  |  |  |  |  |  |  |  |  |  | 12.8 ± 5.1 | 66 ± 7.1
